Results from patent publication US7309713B2, “Use of the non-opiate analgesic drug flupirtine for the treatment of overactive bladder and associated diseases including urge incontinence, urinary flow problems as a result of prostate hyperplasia and irritable bowel syndrome” (priority 2005, dated 2007).
Several values for one entry are separate records, joined by “and”; a condition that tells them apart may be missing. Equal values may be shown once. Entries after “also recorded” stand apart in the source; their conditions may differ. Where a name gives a salt, the structure may show the parent alone.

Legend:
[1] = system: mean arterial blood pressure; assay: mean arterial blood pressure recorded in the urethane anaesthetised rats of the bladder model
Protocol: The body temperature was maintained at 37° C. by means of an heated small operating table and 2 red light heating lamps. The left carotid artery was prepared and a catheter for continuous blood pressure measurement was inserted and connected to a Statham pressure transducer (Model P23 Db) and connected with a computer-controlled physiological recorder (PMS PR 800, Mumed Systems Ltd London, GB).
For intraduodenal drug administration a polyethylene catheter was inserted into the upper part of the duodenum, about 5 cm downwards from the pylorus and fixed with a purse-string suture. Bilateral ureters were ligated proximally to the bladder to prevent the bladder filling with urine. Urine of the kidneys was drained onto cotton swabs within the abdomen. The urinary bladder was catheterised via the urethra by use of PE 50 polyethylene tubing filled with physiological saline and secured in place by a ligature at the lower part of the urethra. Using a “T”-connector, the bladder catheter was connected to a Statham pressure transducer (Model P23 Db) connected with the physiological recorder (PMS PR 800) to measure intravesicular pressure and to a Infusion pump (TSE, FRG). Continuous recordings of intravesicular pressure and arterial blood pressure were captured onto a 4 channel Linearcorder WR3310 (Western Graphtec, Inc., USA). The experiment was started infusing (0.05 ml/min) the bladder with warmed saline (37-38° C.) to evoke rhythmic bladder contractions by means an infusion pump up to a maximal volume of 1.0 ml. The infusion is stopped after reaching the final volume or with the start of rhythmic bladder contractions.

[2] = system: Randall-Selitto test in rats; conditions: p.o.; cited from earlier work
[3] = system: volume-induced rhythmic urinary bladder contractions; assay: volume-induced rhythmic urinary bladder contractions in urethane anaesthetised rats (rat model of overactive bladder); type: in vivo, Sprague Dawley rat; conditions: for presence/absence of bladder contractions (block grade), individual animal: 55 min period, Table 3; for duration of block, individual animal / number of episodes of block per animal / decrease in frequency, individual animal: individual animals; for mean voiding frequency decreased by: decrease
Excerpt: In the search for new drugs compounds are of interest which affect the central nervous system circuits involved in micturation as well as the peripheral nerves resulting in a decrease in the frequency of the voiding reflex without any effect on bladder contractility. […] The method utilises spontaneous, volume-induced contractions of the urinary bladder in anaesthetised rats and was developed and first described by Dray (J. Pharmacol. Meth. 13:157-165, 1985) to assess the central activity of substances with opioid properties on bladder function. As this model clearly mimics the interplay between smooth muscle function and neuronal control thereof, this model can be also used to predict drug effects in a different disease, i.e. irritable bowl syndrome (IBS).
Aim of the study: To characterise the effects of the analgesic flupirtine maleate on the bladder function we used the model volume-induced contractions of urinary bladder in urethane anaesthetised rats. […] The compounds at the dose range 0.1-10 mg/kg were intraduodenally administered to anaesthetised rats. The intraduodenal route was chosen to mimic the oral route and to avoid the use of solvents necessary for intravenous administration.
• Species: Sprague Dawley rat • Sex: Female • Body weight: 200-270 g • Breeder: Charles River, Sulzfeld • Food/Tap water: pellets, ssniff M/R15, ad libitum, Spezialdiäten GmbH, Soest/Wesffalen, FRG • Conditions in animal housing: Rats were kept conventionally in groups of 6 in macrolon cages No. 4. • Room temperature: 20-24° C. • Relative humidity: 40-70%, deviations from the maximum range caused during cleaning procedure are possible • Light/Dark rhythm: 12/12 h light/dark cycle, light on at 6:00 a.m.
The food was withdrawn 16 hours before intraduodenal drug administration. Tap water was available ad libitum.
Flupirtine maleate or oxybutynin hydrochloride were suspended in hydroxyethylcellulose (0.5%) in demineralised water. The substances were ground in a mortar with pistil. The suspensions were placed on a magnetic stirrer before and during dosing procedures. The substances were freshly prepared in the morning and applied intraduodenally in a volume of 0.4 ml/100 g body weight. Control rats received hydroxyethylcellulose (0.5%) i.d.
The filling material, consisting of small globules, was ground in a mortar with pistil. Thereafter the grounded material was suspended in hydroxyethylcellulose (0.5%) in demineralised water. The suspensions were placed on a magnetic stirrer before and during dosing procedures for 10 minutes. The suspensions were freshly prepared in the morning and applied intraduodenally in a volume of 0.4 ml/100 g body weight to rats. Control rats received the same amount of hydroxyethylcellulose (0.5%) i.d.
The continuous registration lasted 1 hr. […] The frequency was evaluated for 10 min before (baseline) and within the observation period in intervals of 10 minutes starting 5, 20, 35 and 50 min after drug administration. For intraduodenal dosing, drugs were administered via a duodenal polyethylene tube to animals in aqueous suspension of 0.5% hydroxyethylcellulose.

Haffner test in mice = conditions: p.o.; cited from earlier work
[4] = system: analgesic effect in rodents; conditions: p.o.; cited from earlier work
[5] = system: isolated organ strips of rat bladder; assay: isolated organ strips of rat bladder contracted with potassium chloride (40 mM); conditions: read-out: IC50, concentration needed to counteract the contractile response of potassium chloride by 50%, isolated organ bath
Protocol: Flupirtine was also tested in an in vitro model of detrusor muscle activity. In this model, isolated organ strips of rat bladder was introduced in an isolated organ bath system. […] In this model, flupirtine did show some activity, but the concentration needed to relax the bladder strip was rather high. […] Direct effects on the bladder wall may be of limited relevance for the pharmacological effect. Indeed, this is in line with the observation that the contraction force of the detrusor in above mentioned in vivo models was not influenced at doses which clearly had pharmacological effects on micturation frequency.

[6] = system: bladder instability after partial ligation of the proximal urethra; assay: bladder hyperactivity/detrusor instability induced by chronic partial outflow obstruction; type: in vivo, rats; conditions: cystometry, 6 weeks after partial ligation
Excerpt: A different model of bladder hyperactivity/detrusor instability induced by chronic partial outflow obstruction is also useful to evaluate the efficacy of a compound. Partial obstruction is achieved using partial ligation of the proximal urethra in rats. […] This can be recorded using cystometry. This model more closely resembles the situation during prostate hyperplasia and other diseases resulting in outflow obstruction. Flupirtine is also active in this model.

[7] = 0.1 mg/kg i.d. single dose, group mean
[8] = 1.0 mg/kg i.d. single dose, group mean
[9] = 3.0 mg/kg i.d. single dose, group mean
[10] = 10 mg/kg i.d. single dose, group mean
[11] = 0.1 mg/kg i.d. single dose, group mean, listed as Flupirtine maleate

CCOC(=O)Nc1ccc(NCc2ccc(F)cc2)nc1N [flupirtine maleate, [(2-Amino-6-(4-fluorophenyl)-methyl-amino-3-pyridinyl)-carbamicacid ethylester maleate]]
mean BP, change in percent from base value (Δ %) [1, 7]: −4.7%
mean BP, change in percent from base value (Δ %) [1, 8]: −6.9%
mean BP, change in percent from base value (Δ %) [1, 9]: −12%
mean BP Post (30-60 min), mean [1, 10]: 79.3-83.3 mm Hg
mean arterial blood pressure decreased by ([1]; 10 mg/kg i.d., decrease): 11%
ED50, Randall-Selitto test [2]: 39 mg/kg p.o.
block X/n (animals with blockade of bladder contraction) ([3]; 0.1 mg/kg i.d. single dose): 2/3
block, blockade duration (group, min-max) ([3]; 0.1 mg/kg i.d. single dose): 4 to 8 min
amplitude, change in percent from base value (Δ %) [3, 7]: −9.0%
frequency, change in percent from base value (Δ %) [3, 7]: +3.4%
amplitude, change in percent from base value (Δ %) [3, 11]: No effect
frequency, change in percent from base value (Δ %) [3, 11]: No effect
block X/n (animals with blockade of bladder contraction) ([3]; 0.1 mg/kg i.d. single dose, listed as Flupirtine maleate): 2 out of 3
presence/absence of bladder contractions (block grade), individual animal ([3]; 0.1 mg/kg i.d.): no block; also recorded: (+) (+ or (+) = contractions abolished during 5-10 min time period)
duration of block, individual animal ([3]; 0.1 mg/kg i.d.): ≤ 4 min and ≤ 8 min
number of episodes of block per animal ([3]; 0.1 mg/kg i.d.): 1
duration of block, individual animal ([3]; 0.1 mg/kg i.d., listed as Flupirtine maleate): 4 min and 8 min
block X/n (animals with blockade of bladder contraction) ([3]; 1.0 mg/kg i.d. single dose): 2 out of 3 and 2/3
block, blockade duration (group, min-max) ([3]; 1.0 mg/kg i.d. single dose): 4 to 18 min
frequency Post (20-60 min), mean [3, 8]: 7.0-7.0 n/10 min
frequency, change in percent from base value (Δ %) [3, 8]: −8.7%
presence/absence of bladder contractions (block grade), individual animal ([3]; 1.0 mg/kg i.d.): no block; also recorded: + (+ or (+) = contractions abolished during 5-10 min time period); also recorded: (+) (+ or (+) = contractions abolished during 5-10 min time period)
decrease in frequency, individual animal ([3]; 1.0 mg/kg i.d.): 17% and 23% and without influence and frequency by 17% and frequency by 23%
duration of block, individual animal ([3]; 1.0 mg/kg i.d.): 4 to 5 min and 16 min
number of episodes of block per animal ([3]; 1.0 mg/kg i.d.): 1 and 2
block X/n (animals with blockade of bladder contraction) ([3]; 3.0 mg/kg i.d. single dose): all three and 3/3
block, blockade duration (group, min-max) ([3]; 3.0 mg/kg i.d. single dose): 5 to 14 min
amplitude Post (30-60 min), mean [3, 9]: 26.3-26.3 mm Hg
frequency, change in percent from base value (Δ %) [3, 9]: −40%
presence/absence of bladder contractions (block grade), individual animal ([3]; 3.0 mg/kg i.d.): ++ (++ = contractions abolished during 10-30 min time period); also recorded: (+) (+ or (+) = contractions abolished during 5-10 min time period); also recorded: + (+ or (+) = contractions abolished during 5-10 min time period)
mean voiding frequency decreased by ([3]; 3 mg/kg i.d.): 40%
decrease in frequency, individual animal ([3]; 3.0 mg/kg i.d.): frequency by 29%; also recorded: by 50%; also recorded: frequency by 41%
duration of block, individual animal ([3]; 3.0 mg/kg i.d.): 14 min and block, 6 min block, starting and ≤ 5 min and 8 min
animals with voiding contractions abolished over the whole observation period ([3]; 10 mg/kg i.d.): 1/3
block X/n (animals with blockade of bladder contraction) ([3]; 10 mg/kg i.d. single dose): 3/3
block, blockade duration (group, min-max) ([3]; 10 mg/kg i.d. single dose): 26 to 56 min
amplitude, change in percent from base value (Δ %) [3, 10]: −26%
frequency, change in percent from base value (Δ %) [3, 10]: −57%
presence/absence of bladder contractions (block grade), individual animal ([3]; 10 mg/kg i.d.): ++ (++ = contractions abolished during 10-30 min time period); also recorded: +++ (+++ = contractions abolished during 30-60 min time period)
mean voiding frequency decreased by ([3]; 10 mg/kg i.d.): 57%
decrease in frequency, individual animal ([3]; 10 mg/kg i.d.): frequency by 68%; also recorded: in frequency by 87%; also recorded: block decrease in frequency by 57%
duration of block, individual animal ([3]; 10 mg/kg i.d.): 26 min and 29 min and 55 min and 39 min
mean pressure peaks of the amplitude diminished/reduced by ([3]; 10 mg/kg i.d., reduction): 26%
doses with therapeutic effect in the model volume-induced contractions in urinary bladder ([3]; rat, in vivo): 1-3 mg/kg p.o.
ED50, analgesic effect in the Haffner test (Haffner test in mice): 28 mg/kg p.o.
doses of first analgesic efficacy [4]: 25-50 mg/kg p.o.

CCOC(=O)Nc1ccc(NCc2ccc(F)cc2)nc1N [flupirtine, 2-amino-3-carbethoxyamino-6-(4-fluorobenzylamino)-pyridine]
effect on peripheral blood pressure ([1]; summary over the doses tested): not cause any effect
fold higher activity in the bladder model than in the analgesia tests ([3]; compared with analgesic ED50 values): 3-10 fold
intraduodenal dose at which the first effects became visible ([3]; intraduodenal): 3 mg/kg
IC50 [5]: 7.5 µM
activity in the chronic partial outflow obstruction model [6]: active
